Assay results published in the NIST ThermoML archive (doi:10.1016/j.jct.2006.03.015).
Numbers after ± are expanded uncertainties.

Test: mn = molality of the nth substance listed, in mol/kg
Conditions: 101 kPa, Liquid; for apparent molar heat capacity: Flow calorimetry

CC(=O)N[C@@H](CC(N)=O)C(N)=O [(S)-2-acetamidosuccinamide] + O
Conditions	apparent molar heat capacity [J/K/mol]	mass density [kg/m3]
288.15 K, m1 = 0.0291	307.3 ± 27	1000.53 ± 0.26
288.15 K, m1 = 0.03172	310 ± 25	1000.65 ± 0.26
288.15 K, m1 = 0.0368	307.6 ± 23	1000.9 ± 0.26
288.15 K, m1 = 0.03929	308.2 ± 20	1001.03 ± 0.26
288.15 K, m1 = 0.04222	309.5 ± 19	1001.17 ± 0.26
288.15 K, m1 = 0.04651	305.7 ± 17	1001.38 ± 0.26
288.15 K, m1 = 0.05278	306.6 ± 17	1001.68 ± 0.26
288.15 K, m1 = 0.05772	302.8 ± 14	1001.92 ± 0.26
288.15 K, m1 = 0.06036	303.7 ± 13	1002.04 ± 0.26
288.15 K, m1 = 0.06513	306.5 ± 14	1002.28 ± 0.27
288.15 K, m1 = 0.07059	308 ± 12	1002.54 ± 0.27
298.15 K, m1 = 0.02807	333.1 ± 28	998.384 ± 0.26
298.15 K, m1 = 0.03296	329.6 ± 24	998.617 ± 0.26
298.15 K, m1 = 0.0381	333.3 ± 21	998.865 ± 0.26
298.15 K, m1 = 0.04348	330.6 ± 18	999.124 ± 0.26
298.15 K, m1 = 0.04618	330.2 ± 18	999.246 ± 0.26
298.15 K, m1 = 0.05136	330.7 ± 16	999.495 ± 0.26
298.15 K, m1 = 0.05666	333.4 ± 19	999.741 ± 0.26
298.15 K, m1 = 0.06197	330.9 ± 14	–
298.15 K, m1 = 0.06198	333 ± 14	999.991 ± 0.26
298.15 K, m1 = 0.06667	332.5 ± 12	1000.22 ± 0.26
298.15 K, m1 = 0.07247	331 ± 11	1000.49 ± 0.26
313.15 K, m1 = 0.03215	353.5 ± 27	993.709 ± 0.28
313.15 K, m1 = 0.03777	356 ± 23	993.972 ± 0.28
313.15 K, m1 = 0.04273	355.6 ± 20	994.186 ± 0.28
313.15 K, m1 = 0.04501	361.1 ± 19	994.291 ± 0.28
313.15 K, m1 = 0.0481	358.6 ± 18	994.444 ± 0.28
313.15 K, m1 = 0.05166	353.7 ± 17	994.598 ± 0.28
313.15 K, m1 = 0.05423	357.7 ± 18	994.726 ± 0.27
313.15 K, m1 = 0.06055	358.6 ± 15	995.006 ± 0.27
313.15 K, m1 = 0.06612	356.4 ± 14	995.264 ± 0.27
313.15 K, m1 = 0.07077	355.6 ± 14	995.471 ± 0.27
313.15 K, m1 = 0.07187	357.7 ± 13	995.524 ± 0.27
328.15 K, m1 = 0.03205	378.3 ± 30	987.15 ± 0.3
328.15 K, m1 = 0.03805	377.4 ± 25	987.418 ± 0.3
328.15 K, m1 = 0.0428	373.4 ± 22	987.633 ± 0.3
328.15 K, m1 = 0.04683	379.4 ± 21	987.812 ± 0.3
328.15 K, m1 = 0.05183	377.2 ± 22	988.042 ± 0.29
328.15 K, m1 = 0.05694	380.7 ± 21	988.263 ± 0.29
328.15 K, m1 = 0.06115	377.1 ± 17	988.455 ± 0.29
328.15 K, m1 = 0.06488	376.5 ± 15	988.623 ± 0.29
328.15 K, m1 = 0.06958	380.2 ± 17	988.834 ± 0.29
